Measurements published in US12435087B2, “Modulators of DCN-1 and methods of use thereof” (Cellarity, Inc., priority 2023, dated 2025).
Like-named read-outs stand apart in the source and are kept apart here.

Tests used:
[1] = molecular target: DCN1 (DCUND1) protein PONY domain (Homo sapiens (Human), UniProt Q96GG9); assay: TR-FRET assay (binding to DCN-1, displacement of FAM-labeled probe)
How it was run: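 Compounds read at 1, 5 and 24 h, 0.1% final DMSO, by TR-FRET between terbium-streptavidin on biotinylated DCN1 PONY domain (E. coli) and a FAM-tagged non-covalent inhibitor probe. Two setups used, 5 nM protein with 20 nM labelled probe, or 0.31 nM protein with 100 nM labelled plus 800 nM unlabelled probe; buffer had TritonX and 200 mM NaCl. % activity relative to high (with probe) and low (without probe) controls.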

DCN1 protein = DCN1 protein (Homo sapiens (Human), UniProt Q96GG9); assay: Intact protein MS analysis with the RapidFire-TOF system (covalent adduct formation); assay type: binding; details: 400 nM DCN1, incubated at room temperature for 3 hours
Chain of DCN1 protein (Q96GG9 whole entry): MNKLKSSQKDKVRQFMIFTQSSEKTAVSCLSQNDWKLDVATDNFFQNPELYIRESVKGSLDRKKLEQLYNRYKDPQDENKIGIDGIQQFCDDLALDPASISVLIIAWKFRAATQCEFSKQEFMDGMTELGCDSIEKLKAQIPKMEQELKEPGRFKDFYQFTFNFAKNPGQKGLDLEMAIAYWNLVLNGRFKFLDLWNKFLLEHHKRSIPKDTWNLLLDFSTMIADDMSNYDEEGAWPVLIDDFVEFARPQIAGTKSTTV
Experimental: (§1) DCN1 protein, His-TEV-DCN1, were expressed in E. Coli. The His-tagged protein was first purified with an Ni-NTA column. The His-tag was cleaved using His-tag TEV protease and the His-tags were removed using a second Ni-NTA column. Protein purity was verified with SDS-PAGE and intact MS. DCN1 was dissolved in a buffer containing 25 mM Tris-HCl, 200 mM NaCl, and 1 mM DTT at 400 nM. 11 concentrations of compounds were added to the DCN1 solution and incubated at room temperature for 3 hours, unless otherwise specified. The reaction plates were quenched by adding 0.2% formic acid. Quenched assay plates were analyzed with an Agilent RapidFire 360 system connected to an Agilent 6545 Q-TOF mass spectrometer equipped with an AJS source. 10 μL of sample volume was loaded onto a custom packed cartridge (4 μL, PLRP-S 30 μm/1000 Å pore; Optimize Technologies) with loading buffer (ddH2O with 0.09% (vol/vol) formic acid and 0.01% (vol/vol) trifluoroacetic acid; 1.25 ml/min) for 6 seconds before being eluted directly into the mass spectrometer in elution buffer (80% acetonitrile with 0.09% (vol/vol) formic acid and 0.01% (vol/vol) trifluoroacetic acid; 0.5 ml/min) for 7 seconds. The cartridge was re-equilibrated with loading buffer for 1 second before collection of the next sample. The Q-TOF was operated in TOF-only positive ionization mode set to the following parameters: Gas Temp=350 C, Drying Gas=7 l/min, Nebulizer=50 psi, Sheath Gas Temp=400 C, Sheath Gas Flow=12 l/min, VCap=4000 V, Nozzle Voltage=1000 V, Fragmentor=125 V, Skimmer=65 V and Oct 1 RF Vpp=750V. Raw MS data files were deconvoluted and analyzed using the Agilent MassHunter Bioconfirm software package to identify both parent protein and expected compound adduct mass signatures.
An MS assay was performed to evaluate the ability of the compounds to covalently modify DCN-1.
as §1, with “Vcap=4000” for “VCap=4000”

[2] = 24 hr after treatment with compound, read-out: TR FRET IC50 24 hr
[3] = read-out: TR FRET IC50 1 hr, 1 hr after treatment with compound
[4] = TR FRET IC50 1 hr (nM), 1 hr after treatment with compound

Chain of DCN1 (DCUND1) protein PONY domain (Q96GG9 60-248): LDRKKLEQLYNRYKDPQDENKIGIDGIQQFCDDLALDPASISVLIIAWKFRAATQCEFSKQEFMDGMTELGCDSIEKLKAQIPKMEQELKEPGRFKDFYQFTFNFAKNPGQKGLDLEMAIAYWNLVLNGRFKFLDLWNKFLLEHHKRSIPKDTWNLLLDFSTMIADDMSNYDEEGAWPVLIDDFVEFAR

Compound | IC50 [1, 2] | IC50 [1, 3] | Emax (DCN1 protein) | IC50 [1, 4] | % Adduct Formation (MS Emax) (DCN1 protein)
C=C(CN1CCOCC1)C(=O)Nc1cccc([C@H]2c3c(C)nn(-c4ccccc4)c3N(CC)C(=O)[C@@H]2NC(=O)c2ccn(C(F)(F)F)n2)c1 (racemic) [Compound I-65] | ≤ 200 nM | ≤ 200 nM | 80 to 100% | – | –
CCN1CC=C(C(=O)Nc2cccc([C@@H]3c4c(C)nn(-c5ccccc5)c4N(CC)C(=O)[C@H]3NC(=O)c3nccc(C(F)(F)F)n3)c2)C1 [Compound I-225] | – | – | 80 to 100% | 200 to 1000 nM | –
CCN1C(=O)[C@H](NC(=O)c2cccc(C(F)(F)F)c2)[C@@H](c2cccc(NC(=O)/C=C/CN3CCOCC3)c2)c2c(C)nn(-c3ccccc3)c21 (racemic) [Compound I-47] | 1000 to 3000 nM | > 3000 nM | 0 to 30% | – | –
C=C(CN1CCOCC1)C(=O)NCc1cccc([C@@H]2c3cnn(-c4ccccc4)c3N(CC)C(=O)[C@H]2NC(=O)c2nccc(C(F)(F)F)n2)c1 [Compound I-82] | ≤ 200 nM | ≤ 200 nM | 80 to 100% | – | –
C=C(CN1CCN(C2COC2)CC1)C(=O)N(C)Cc1cccc([C@@H]2c3cnn(-c4ccccc4)c3N(CC)C(=O)[C@H]2NC(=O)c2nccc(C(F)(F)F)n2)c1 [Compound I-223] | ≤ 200 nM | ≤ 200 nM | 80 to 100% | – | –
CCN1C(=O)[C@H](NC(=O)c2cccc(C(F)(F)F)c2)[C@@H](c2cccc(NC(=O)/C=C/C(=O)OC)c2)c2c(C)nn(-c3ccccc3)c21 (racemic) [Compound I-141] | ≤ 200 nM | ≤ 200 nM | 80 to 100% | – | –
CCN1C(=O)[C@@H](NC(=O)c2cccc(C(F)(F)F)c2)[C@H](c2cccc(NC(=O)C3=C(C(=O)OC)CC3)c2)c2c(C)nn(-c3ccccc3)c21 [Compound I-34] | ≤ 200 nM | ≤ 200 nM | 80 to 100% | – | –
C/C=C(\CN1CCN(C2COC2)CC1)C(=O)NCc1cccc([C@@H]2c3cnn(-c4ccccc4)c3N(CC)C(=O)[C@H]2NC(=O)c2cccc(C(F)(F)F)c2)c1 [Compound I-222] | ≤ 200 nM | – | 80 to 100% | 200 to 1000 nM | –
C=C(CN(C)C1COC1)C(=O)NCc1cccc([C@@H]2c3cnn(-c4ccccc4)c3N(CC)C(=O)[C@H]2NC(=O)c2cccc(C(F)(F)F)c2)c1 [Compound I-66] | ≤ 200 nM | ≤ 200 nM | 80 to 100% | – | –
C/C=C/C(=O)Nc1cccc([C@H]2c3c(C)nn(-c4ccccc4)c3N(CC)C(=O)[C@H]2NC(=O)c2cccc(C(F)(F)F)c2)c1 (racemic) [Compound I-23] | > 3000 nM | – | 0 to 30% | > 3000 nM | –
CCN1C(=O)[C@@H](NC(=O)c2nccc(C(F)(F)F)n2)[C@H](c2cccc(NC(=O)C3=CCN(C)C3)c2)c2c(C)nn(-c3ccccc3)c21 [Compound I-224] | ≤ 200 nM | – | 80 to 100% | 200 to 1000 nM | –
CCN1C(=O)[C@@H](NC(=O)c2cccc(C(F)(F)F)c2)[C@H](c2cccc(NC(=O)/C=C/CN(C)C)n2)c2cnn(-c3ccccc3)c21 [Compound I-214] | ≤ 200 nM | – | 80 to 100% | 200 to 1000 nM | –
C=C(CN1CCC(F)(F)C1)C(=O)Nc1cccc([C@@H]2c3c(C)nn(-c4ccccc4)c3N(CC)C(=O)[C@H]2NC(=O)c2cccc(C(F)(F)F)c2)c1 (racemic) [Compound I-60] | ≤ 200 nM | ≤ 200 nM | 80 to 100% | – | –
C=C(CN1CCOCC1)C(=O)Nc1ccccc1[C@H]1c2cnn(-c3ccccc3)c2N(CC)C(=O)[C@@H]1NC(=O)c1cccc(C(F)(F)F)c1 (racemic) [Compound I-15] | ≤ 200 nM | ≤ 200 nM | 80 to 100% | – | –
C=C(CN1CCC(F)(F)C1)C(=O)Nc1cccc([C@@H]2c3c(C)nn(-c4ccccc4)c3N(CC)C(=O)[C@H]2NC(=O)c2nccc(C(F)(F)F)n2)c1 [Compound I-228] | ≤ 200 nM | ≤ 200 nM | 80 to 100% | – | –
CCN1C(=O)[C@@H](NC(=O)c2cccc(C(F)(F)F)c2)[C@@H](c2cccc(NC(=O)[C@H](F)Cl)c2)c2c(C)nn(-c3ccccc3)c21 (mixture of isomers) [Compound I-18] | > 3000 nM | – | 0 to 30% | > 3000 nM | –
C=C(CN1CCC1)C(=O)Nc1cccc([C@H]2c3c(C)nn(-c4ccccc4)c3N(CC)C(=O)[C@@H]2NC(=O)c2cccc(C(F)(F)F)c2)c1 (racemic) [Compound I-137] | ≤ 200 nM | ≤ 200 nM | 80 to 100% | – | –
C=C(CN1CCOCC1)C(=O)Nc1cccc([C@H]2c3c(C)nn(-c4ccccc4)c3N(CC)C(=O)[C@@H]2NC(=O)c2cccc(C(F)(F)F)c2)c1 (racemic) [Compound I-9, N-[rac-(4S,5R)-7-ethyl-3-methyl-4-[3-[2-(morpholinomethyl)prop-2-enoylamino]phenyl]-6-oxo-1-phenyl-4,5-dihydropyrazolo[3,4-b]pyridin-5-yl]-3-(trifluoromethyl)benzamide] | ≤ 200 nM | – | 80 to 100% | ≤ 200 nM | –
C=C(CN1CC2(COC2)C1)C(=O)NCc1cccc([C@@H]2c3cnn(-c4ccccc4)c3N(CC)C(=O)[C@H]2NC(=O)c2cccc(C(F)(F)F)c2)c1 [Compound I-6] | ≤ 200 nM | ≤ 200 nM | 80 to 100% | – | –
C=C(CN1CCOCC1)C(=O)Nc1cccc([C@H]2c3c(C)nn(-c4ccccc4)c3N(CC)C(=O)C2NC(=O)c2cccc(C(F)(F)F)c2)c1 (stereo in doubt) [Compound I-83, N-((4S,5R)-7-ethyl-3-methyl-4-(3-(2-(morpholinomethyl)acrylamido)phenyl)-6-oxo-1-phenyl-4,5,6,7-tetrahydro-1H-pyrazolo[3,4-b]pyridin-5-yl)-3-(trifluoromethyl)benzamide] | ≤ 200 nM | ≤ 200 nM | – | – | ++ (MS Emax % adduct formation greater than 30.0 and less than or equal to 80.0)
C=C(C)C(=O)Nc1cccc([C@H]2c3c(C)nn(-c4ccccc4)c3N(CC)C(=O)[C@H]2NC(=O)c2cccc(C(F)(F)F)c2)c1 (racemic) [Compound I-17] | > 3000 nM | – | 0 to 30% | > 3000 nM | –
CCN1C(=O)[C@H](NC(=O)c2cccc(C(F)(F)F)c2)[C@@H](c2cccc(NC(=O)C3=CCC3)c2)c2c(C)nn(-c3ccccc3)c21 (racemic) [Compound I-78, ˜{N}—[˜{rac}-(4˜{S},5˜{R})-4-[3-(cyclobutene-1-carbonylamino)phenyl]-7-ethyl-3-methyl-6-oxo-1-phenyl-4,5-dihydropyrazolo[3,4-b]pyridin-5-yl]-3-(trifluoromethyl)benzamide] | 200 to 1000 nM | – | 80 to 100% | 1000 to 3000 nM | –
C=C(C)C(=O)Nc1cccc([C@H]2c3c(C)nn(-c4ccccc4)c3N(CC)C(=O)[C@@H]2NC(=O)c2cccc(C(F)(F)F)c2)c1 (racemic) [Compound I-201] | – | – | 0 to 30% | – | –
CCN1C(=O)[C@H](NC(=O)c2cccc(C(F)(F)F)c2)[C@@H](c2ccccc2NC(=O)C2=CCCC2)c2cnn(-c3ccccc3)c21 (racemic) [Compound I-188] | – | – | 0 to 30% | – | –
CCN1C(=O)[C@@H](NC(=O)c2cccc(C(F)(F)F)c2)[C@@H](c2cccc(NC(=O)[C@H](C)Br)c2)c2c(C)nn(-c3ccccc3)c21 (mixture of isomers) [Compound I-204] | – | – | 0 to 30% | – | –
